# According to patent US20110098312A1, “METHODS FOR PREVENTING THE DEVELOPMENT OF RETINOPATHY BY THE ORAL ADMINISTRATION OF NNR LIGANDS” (Targacept ,Inc, priority 2008, published 2011):
# Assays:
# Pig primary RPE cells = experiment: Transepithelial resistance (TER) of RPE monolayers under oxidative stress (H2O2 and serum as source of complement); assay type: cell-based; details: for Mean Diff., Fisher's PLSD for 100 nM effect: treatment / Mean Diff., Fisher's PLSD for nicotine effect: treatment: Significance Level 5%; for Mean Diff., Fisher's PLSD for nicotine effect: treatment: dose response profiles; for dose-response profile of TER preservation: range 5 nM-1 μM; for effect of compound on TER on its own: test compound controls lack H2O2; for EC50: Sus scrofa, RPE, pretreatment 1 hour prior to stressors, tested at 5 nM-1 μM, read-out: ED50 (reduction of oxidative stress-mediated TER loss)
# Description: Pig primary RPE cells grown as stable monolayers were used for this set of experiments. RPE monolayers were treated with hydrogen peroxide (H2O2) and serum as a source of complement. This treatment is known to result in loss of transepithelial resistance (TER) in RPE cells that is dependent upon reactive oxygen species and superoxide production. […] Combined treatment of two stressors present in AMD (low oxidative stress and complement activation) results in TER loss; whereas each stressor alone has no effect. This loss in TER can be eliminated by pretreatment with superoxide dismutase (SOD) mimetic (MnTBAP). […] FIG. 4 is derived from the maximal effects observed in FIG. 3. […] The higher the resistance, the less injury to the cell. Note that “HI” is “heat inactivated.” Heat inactivates complement, a necessary component to cause injury to the RPE in the presence of peroxides. Pig primary RPE cells were harvested from pigs used for practice surgeries. Cultures were performed described by Ablonczy, Z. and C. E. Crosson, VEGF modulation of retinal pigment epithelium resistance. […] Chemicals. Compounds were tested at 5 nM-1 μM concentration. Compound A-E are as noted herein.
# [1] = test system: Rat brain endothelial cell line gp8.3 cells; experiment: Alpha 7 ligand modulation of radiation-induced ROS generation; assay type: cell-based; details: 10 uM ligand for 1 h prior to single dose of 10 Gy; H2DCFDA; FIG. 2
# [2] = pairwise comparison versus Compound B
# [3] = pairwise comparison versus Compound C
# [4] = pairwise comparison versus Compound D
# [5] = pairwise comparison versus Compound A
smiles,measurement,setting,value
"CN[C@@]1(C)[C@@H]2CC[C@@H](C2)C1(C)C [Compound A, exo-S-mecamylamine]","Mean Diff., Fisher's PLSD for 100 nM effect: treatment",Pig primary RPE cells; [2],−14.209
same,"Mean Diff., Fisher's PLSD for nicotine effect: treatment",Pig primary RPE cells; [2],−16.538
same,"Mean Diff., Fisher's PLSD for 100 nM effect: treatment",Pig primary RPE cells; [3],−16.276
same,"Mean Diff., Fisher's PLSD for nicotine effect: treatment",Pig primary RPE cells; [3],−14.503
same,"Mean Diff., Fisher's PLSD for 100 nM effect: treatment",Pig primary RPE cells; [4],−6.177
same,"Mean Diff., Fisher's PLSD for nicotine effect: treatment",Pig primary RPE cells; [4],−9.359
same,dose-response profile of TER preservation,Pig primary RPE cells; FIG. 4,exhibited a dose-response profile over the entire range used
"Cc1ccc(C(=O)N[C@@H]2C3CCN(CC3)[C@H]2Cc2cccnc2)s1 [Compound B, N-((2S,3R)-2-((pyridin-3-yl)methyl)-1-azabicyclo[2.2.2]oct-3-yl)-5-methylthiophene-2-carboxamide]",radiation-induced increase in ROS level,[1],blocked radiation-induced increase in ROS level
same,dose-response profile of TER preservation,Pig primary RPE cells; FIG. 4,plateaued at or around the ED50 level
same,effect of compound on TER on its own,Pig primary RPE cells,reduced TER on their own
"O=C(N[C@@H]1C2CCN(CC2)[C@H]1Cc1cccnc1)c1cc(F)cc(F)c1 [Compound C, N-((2S,3R)-2-((3-pyridinyl)methyl)-1-azabicyclo[2.2.2]oct-3-yl)-3,5-difluorobenzamide]",EC50,Pig primary RPE cells; FIG. 4,< 50 nM
same,"Mean Diff., Fisher's PLSD for 100 nM effect: treatment",Pig primary RPE cells; [2],2.066
same,"Mean Diff., Fisher's PLSD for nicotine effect: treatment",Pig primary RPE cells; [2],−2.035
same,"Mean Diff., Fisher's PLSD for 100 nM effect: treatment",Pig primary RPE cells; [4],10.098
same,"Mean Diff., Fisher's PLSD for nicotine effect: treatment",Pig primary RPE cells; [4],5.144
same,dose-response profile of TER preservation,Pig primary RPE cells; FIG. 4,plateaued at or around the ED50 level
same,effect of compound on TER on its own,Pig primary RPE cells,reduced TER on their own
c1cncc(C2CC3CCN2CC3)c1 (stereo not drawn) [Compound D],"Mean Diff., Fisher's PLSD for 100 nM effect: treatment",Pig primary RPE cells; [2],−8.023
same,"Mean Diff., Fisher's PLSD for nicotine effect: treatment",Pig primary RPE cells; [2],−7.179
"C(=C\[C@H]1CCNC1)/c1cncnc1 [Compound E, (R)-5-((E)-2-pyrrolidin-3-ylvinyl)pyrimidine]",EC50,Pig primary RPE cells; FIG. 4,~200 nM
same,"Mean Diff., Fisher's PLSD for 100 nM effect: treatment",Pig primary RPE cells; [5],39.927
same,"Mean Diff., Fisher's PLSD for nicotine effect: treatment",Pig primary RPE cells; [5],34.222
same,"Mean Diff., Fisher's PLSD for 100 nM effect: treatment",Pig primary RPE cells; [2],25.718
same,"Mean Diff., Fisher's PLSD for nicotine effect: treatment",Pig primary RPE cells; [2],17.682
same,"Mean Diff., Fisher's PLSD for 100 nM effect: treatment",Pig primary RPE cells; [3],23.652
same,"Mean Diff., Fisher's PLSD for nicotine effect: treatment",Pig primary RPE cells; [3],19.717
same,"Mean Diff., Fisher's PLSD for 100 nM effect: treatment",Pig primary RPE cells; [4],33.750
same,"Mean Diff., Fisher's PLSD for nicotine effect: treatment",Pig primary RPE cells; [4],24.861
"O=C(O)c1ccc(/C2=C3\C=CC(=N3)/C(c3ccc(C(=O)O)cc3)=c3/cc/c4[n]3[Mn]([Cl])[n]3c2ccc3/C(c2ccc(C(=O)O)cc2)=C2/C=CC(=N2)\C=4c2ccc(C(=O)O)cc2)cc1 [MnTBAP, reference compound]",loss in TER caused by combined stressors,"Pig primary RPE cells; pretreatment, low oxidative stress and complement activation",eliminated
"CN1CCCC1c1cccnc1 (stereo not drawn) [nicotine, reference compound]",reduction of oxidative stress-mediated loss of epithelial cell integrity (TER deterioration),"Pig primary RPE cells; H2O2 + serum, dose response, FIG. 4",reduces transepithelial resistance (TER) deterioration in the presence of stress in a dose-dependent manner
